The record followed here is patent US20250171463A1 (BIOGEN MA INC., priority 2022, published 2025).

This experiment deals with T1, EBP (Homo sapiens, UniProt Q15125).
T1 construct: HEK293T cells were utilized as the source of EBP enzyme; endogenous in cells; host or cells: HEK293T
The experiment can be described thus: EBP Functional Assay (EBP immunoaffinity LC-MS assay). It counts as biochemical. Particulars: EBP enzyme from HEK293T cells; 30 min with inhibitor, then zymosterol-d5, 37° C., 4 h; percent conversion to dehydrolathosterol-d5 by LC-APCI MRM MS. A digest of the protocol: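 HEK293T cells served as EBP source; enzyme preincubated 30 min with inhibitor dilutions, then zymosterol-d5 substrate added and incubated 4 h at 37° C. Sterols extracted and quantified by LC-APCI MRM MS; percent conversion to […] fit to 4-parameter logistic for IC50. Tasin-1 reference inhibitor.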

The structures appear in SMILES notation.

T1 sequence (Q15125 whole entry): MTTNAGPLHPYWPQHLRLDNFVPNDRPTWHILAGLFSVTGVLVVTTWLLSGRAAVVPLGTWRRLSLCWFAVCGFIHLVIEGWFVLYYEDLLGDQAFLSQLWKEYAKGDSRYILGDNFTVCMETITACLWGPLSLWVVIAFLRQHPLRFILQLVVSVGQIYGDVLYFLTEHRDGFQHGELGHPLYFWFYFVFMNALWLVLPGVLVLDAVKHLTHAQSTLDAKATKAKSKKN

With `Cc1nc(C(F)(F)F)ccc1S(=O)(=O)N1CC2(CN(CC3(C)CCOCC3)C2)C1` [Example 129, 2-((2-methyl-6-(trifluoromethyl)pyridin-3-yl)sulfonyl)-6-((4-methyltetrahydro-2H-pyran-4-yl)methyl)-2,6-diazaspiro[3.3]heptane], the IC50 (commonly the concentration at which inhibition is half-maximal) was less than 100 nM.

In the case of `Cc1nc(C(F)(F)F)ccc1S(=O)(=O)N1CC2(CN(C(C)C3(C)CCOCC3)C2)C1` (centres unmarked) [Example 131], the IC50 is 100 to 250 nM.

Consider `Cc1nc(C(F)(F)F)ccc1S(=O)(=O)N1CC2(CN(C(C)C3(C)COC3)C2)C1` (centres unmarked) [Example 132], for which the IC50 was in the range of 100 to 250 nM.

In turn, `Cc1nc(C(F)(F)F)ccc1S(=O)(=O)N1CC2(CN(CC3CCOC3)C2)C1` (centres unmarked) [Example 133] returned an IC50 of 250 to 4000 nM.

As to `Cc1nc(C(F)(F)F)ccc1S(=O)(=O)N1CC2(CN(CC3(C)CCCO3)C2)C1` (centres unmarked) [Example 134], the IC50 was in the range of 100 to 250 nM.

For the compound `Cc1nc(C(F)(F)F)ccc1S(=O)(=O)N1CC2(CN(CC3CCCOC3)C2)C1` (centres unmarked) [Example 136], the IC50 fell in the range of 100 to 250 nM.

The compound `Cc1nc(C(F)(F)F)ccc1S(=O)(=O)N1CC2(CN(C(C)C3CCCOC3)C2)C1` (centres unmarked) [Example 137] displayed an IC50 of less than 100 nM.

`Cc1nc(C(F)(F)F)ccc1S(=O)(=O)N1CC2(CN(CC3CCCO3)C2)C1` (centres unmarked) [Example 139] registered an IC50 of 250 to 4000 nM.

Take `Cc1nc(C(F)(F)F)ccc1S(=O)(=O)N1CC2(CN(C3CCOC3)C2)C1` (centres unmarked) [Example 140]: the IC50 is 250 to 4000 nM.

Take `Cc1nc(C(F)(F)F)ccc1S(=O)(=O)N1CC2(CN(CC3(C)COC3)C2)C1` [Example 141]: the IC50 was less than 100 nM.

The compound `Cc1nc(C(F)(F)F)ccc1S(=O)(=O)N1CC2(CN(C3CCOCC3(C)C)C2)C1` (centres unmarked) [Example 142] yielded an IC50 of less than 100 nM.

As for `Cc1nc(C(F)(F)F)ccc1S(=O)(=O)N1CC2(CN(C3CCOCC3C)C2)C1` (centres unmarked) [Example 145], the IC50 was less than 100 nM.

As for `Cc1nc(C(F)(F)F)ccc1S(=O)(=O)N1CC2(CN(C3CCC(F)(F)CC3)C2)C1` [Example 150], the IC50 was less than 100 nM.

As for `Cc1nc(C(F)(F)F)ccc1S(=O)(=O)N1CC2(CN(C3CCCOC3)C2)C1` (centres unmarked) [Example 151], the IC50 was in the range of 250 to 4000 nM.

The compound `Cc1nc(C(F)(F)F)ccc1S(=O)(=O)N1CC2(CN(CC3CCOCC3)C2)C1` [Example 152] showed an IC50 of less than 100 nM.

`Cc1nc(C(F)(F)F)ccc1S(=O)(=O)N1CC2(CN(CC3COC3)C2)C1` [Example 154] yielded an IC50 of 100 to 250 nM.

`O=S(=O)(c1cccnc1C(F)(F)F)N1CC2(CN(C3CCOCC3)C2)C1` [Example 162, 2-(tetrahydro-2H-pyran-4-yl)-6-((2-(trifluoromethyl)pyridin-3-yl)sulfonyl)-2,6-diazaspiro[3.3]heptane] had an IC50 of 250 to 4000 nM.

The compound `Cc1nc(C2CC2(F)F)ccc1S(=O)(=O)N1CC2(CN(C3CCOCC3)C2)C1` (centres unmarked) [Example 163, 2-((6-(2,2-difluorocyclopropyl)-2-methylpyridin-3-yl)sulfonyl)-6-(tetrahydro-2H-pyran-4-yl)-2,6-diazaspiro[3.3]heptane] gave an IC50 of less than 100 nM.

Regarding `Cc1ncccc1S(=O)(=O)N1CC2(CN(C3CCOCC3)C2)C1` [Example 164, 2-((2-methylpyridin-3-yl)sulfonyl)-6-(tetrahydro-2H-pyran-4-yl)-2,6-diazaspiro[3.3]heptane], the IC50 lay within 250 to 4000 nM.

On to `O=S(=O)(c1cnc(Cl)c(C(F)(F)F)c1)N1CC2(CN(C3CCOCC3)C2)C1` [Example 165, 2-((6-chloro-5-(trifluoromethyl)pyridin-3-yl)sulfonyl)-6-(tetrahydro-2H-pyran-4-yl)-2,6-diazaspiro[3.3]heptane], for which the IC50 fell in the range of 250 to 4000 nM.

For the compound `Cn1nc(C(C)(F)F)cc1S(=O)(=O)N1CC2(CN(C3CCOCC3)C2)C1` [Example 166, 2-((3-(1,1-difluoroethyl)-1-methyl-1H-pyrazol-5-yl)sulfonyl)-6-(tetrahydro-2H-pyran-4-yl)-2,6-diazaspiro[3.3]heptane], the IC50 was in the range of 100 to 250 nM.

For `COc1cc(C)c(S(=O)(=O)N2CC3(CN(C4CCOCC4)C3)C2)cn1` [Example 168, 2-((6-methoxy-4-methylpyridin-3-yl)sulfonyl)-6-(tetrahydro-2H-pyran-4-yl)-2,6-diazaspiro[3.3]heptane], the IC50 was 250 to 4000 nM.

In the case of `Cn1nc2c(c1S(=O)(=O)N1CC3(CN(C4CCOCC4)C3)C1)CCC2` [Example 169, 2-methyl-3-((6-(tetrahydro-2H-pyran-4-yl)-2,6-diazaspiro[3.3]heptan-2-yl)sulfonyl)-2,4,5,6-tetrahydrocyclopenta[c]pyrazole], the IC50 fell in the range of 250 to 4000 nM.

Compound `CCN1CC2(C1)CN(S(=O)(=O)c1ccc(C(F)(F)F)nc1C)C2` [Example 170] displayed an IC50 of 250 to 4000 nM.

Take `Cc1nc(C(F)(F)F)ccc1S(=O)(=O)N1CC2(CN(CC3CC3C#N)C2)C1` (centres unmarked) [Example 171]: the IC50 lay within 250 to 4000 nM.

`COCCOCCCN1CC2(C1)CN(S(=O)(=O)c1ccc(C(F)(F)F)nc1C)C2` [Example 172]: the IC50 was in the range of 250 to 4000 nM.

`Cc1nc(C(F)(F)F)ccc1S(=O)(=O)N1CC2(CN(CCCOC3CCCC3)C2)C1` [Example 176] showed an IC50 of less than 100 nM.

Compound `COC(=O)C(C)(C)CCN1CC2(C1)CN(S(=O)(=O)c1ccc(C(F)(F)F)nc1C)C2` [Example 177] had an IC50 of 250 to 4000 nM.

`COC(CN1CC2(C1)CN(S(=O)(=O)c1ccc(C(F)(F)F)nc1C)C2)C1CC1` (centres unmarked) [Example 178] came in with an IC50 of 250 to 4000 nM.

With `COCCCCCN1CC2(C1)CN(S(=O)(=O)c1ccc(C(F)(F)F)nc1C)C2` [Example 179], the IC50 lay in the range of 100 to 250 nM.

`COC(C)CCCN1CC2(C1)CN(S(=O)(=O)c1ccc(C(F)(F)F)nc1C)C2` (centres unmarked) [Example 180] displayed an IC50 of 100 to 250 nM.

For the compound `COCCC1(CN2CC3(C2)CN(S(=O)(=O)c2ccc(C(F)(F)F)nc2C)C3)CCC1` [Example 181], the IC50 lay in the range of 100 to 250 nM.

As to `CCSCCCN1CC2(C1)CN(S(=O)(=O)c1ccc(C(F)(F)F)nc1C)C2` [Example 183], the IC50 was less than 100 nM.

In the case of `Cc1nc(C(F)(F)F)ccc1S(=O)(=O)N1CC2(CN(CCC3CC3)C2)C1` [Example 184], the IC50 was less than 100 nM.

For `Cc1nc(C(F)(F)F)ccc1S(=O)(=O)N1CC2(CN(CCOC(C)(C)C)C2)C1` [Example 185], the IC50 was less than 100 nM.

As to `Cc1nc(C(F)(F)F)ccc1S(=O)(=O)N1CC2(CN(CC3CCOC(C)(C)C3)C2)C1` (centres unmarked) [Example 186], the IC50 lay within 100 to 250 nM.

Turning to `Cc1nc(C(F)(F)F)ccc1S(=O)(=O)N1CC2(CN(CC3(O)CCOCC3)C2)C1` [Example 187, 4-((6-((2-methyl-6-(trifluoromethyl)pyridin-3-yl)sulfonyl)-2,6-diazaspiro[3.3]heptan-2-yl)methyl)tetrahydro-2H-pyran-4-ol], the IC50 is 250 to 4000 nM.

Compound `Cc1nc(C(F)(F)F)ccc1S(=O)(=O)N1CC2(CN(CC3(F)CCOCC3)C2)C1` [Example 188, 2-((4-fluorotetrahydro-2H-pyran-4-yl)methyl)-6-((2-methyl-6-(trifluoromethyl)pyridin-3-yl)sulfonyl)-2,6-diazaspiro[3.3]heptane] showed an IC50 of less than 100 nM.

Turning to `CC(C)c1cc(S(=O)(=O)N2CC3(CN(C4CCOCC4)C3)C2)n(C)n1` [Example 189, 2-((3-isopropyl-1-methyl-1H-pyrazol-5-yl)sulfonyl)-6-(tetrahydro-2H-pyran-4-yl)-2,6-diazaspiro[3.3]heptane], the IC50 is less than 100 nM.

`O=S(=O)(c1ccc(C(F)(F)F)nc1C1CC1)N1CC2(CN(CC3CCOCC3)C2)C1` [Example 190, 2-((2-cyclopropyl-6-(trifluoromethyl)pyridin-3-yl)sulfonyl)-6-((tetrahydro-2H-pyran-4-yl)methyl)-2,6-diazaspiro[3.3]heptane] displayed an IC50 of less than 100 nM.

`Cc1nc(C2(C(F)(F)F)CC2)ccc1S(=O)(=O)N1CC2(CN(CC3CCOCC3)C2)C1` [Example 191, 2-((2-methyl-6-(1-(trifluoromethyl)cyclopropyl)pyridin-3-yl)sulfonyl)-6-((tetrahydro-2H-pyran-4-yl)methyl)-2,6-diazaspiro[3.3]heptane] came in with an IC50 of less than 100 nM.

Compound `O=S(=O)(c1ccc(C(F)(F)F)nc1Cl)N1CC2(CN(C3CCOCC3)C2)C1` [Example 192, 2-((2-chloro-6-(trifluoromethyl)pyridin-3-yl)sulfonyl)-6-(tetrahydro-2H-pyran-4-yl)-2,6-diazaspiro[3.3]heptane] displayed an IC50 of less than 100 nM.

The compound `O=S(=O)(c1ccc(C(F)(F)F)nc1C1CC1)N1CC2(CN(C3CCOCC3)C2)C1` [Example 193, 2-((2-cyclopropyl-6-(trifluoromethyl)pyridin-3-yl)sulfonyl)-6-(tetrahydro-2H-pyran-4-yl)-2,6-diazaspiro[3.3]heptane] returned an IC50 of less than 100 nM.

Turning to `Cc1cc(C(F)(F)F)ccc1S(=O)(=O)N1CC2(CN(CC3CCOCC3)C2)C1` [Example 194, 2-((2-methyl-4-(trifluoromethyl)phenyl)sulfonyl)-6-((tetrahydro-2H-pyran-4-yl)methyl)-2,6-diazaspiro[3.3]heptane], the IC50 was less than 100 nM.

For the compound `CC1(O)CCC(N2CC3(C2)CN(S(=O)(=O)c2ccc(C(F)(F)F)nc2C2CC2)C3)CC1` (centres unmarked) [Example 195, 4-(6-((2-cyclopropyl-6-(trifluoromethyl)pyridin-3-yl)sulfonyl)-2,6-diazaspiro[3.3]heptan-2-yl)-1-methylcyclohexan-1-ol], the IC50 was less than 100 nM.

`CC1(O)CCC(N2CC3(C2)CN(S(=O)(=O)c2ccc(C(F)(F)F)nc2C2CC2)C3)CC1` (centres unmarked) [Example 196, 4-(6-((2-cyclopropyl-6-(trifluoromethyl)pyridin-3-yl)sulfonyl)-2,6-diazaspiro[3.3]heptan-2-yl)-1-methylcyclohexan-1-ol] showed an IC50 of 100 to 250 nM.

`O=S(=O)(c1cccnc1C(F)(F)F)N1CC2(CN(CC3CCOCC3)C2)C1` [Example 201, 2-((tetrahydro-2H-pyran-4-yl)methyl)-6-((2-(trifluoromethyl)pyridin-3-yl)sulfonyl)-2,6-diazaspiro[3.3]heptane]: the IC50 lay within 250 to 4000 nM.
